# Results from US5215900A, “Microbial transformation of a substituted pyridinone using streptomyces sp. MA6804” (Merck & Co., Inc., priority 1991, dated 1993).
# Target: T1, recombinant HIV reverse transcriptase (HIV RTR) (Human immunodeficiency virus type 1 group M subtype B, UniProt P04585)
# T1 construct: recombinant HIV reverse transcriptase (HIV RTR)
# Assay: Reverse Transcriptase Assay
# Format: biochemical
# Procedure: The assay measures the incorporation of tritiated deoxyguanosine monophosphate by recombinant HIV reverse transcriptase (HIV RTR) (or other RT) into acid-precipitable cDNA at the Km values of dGTP and poly r(C).oligo d(G)12-18.
# Thirty uL of a reaction mixture containing equal volumes of: 500 mM Tris.HCl (pH 8.2), 300 mM MgCl2, 1200 mM KCl, 10 mM DTT, 400 μg/mL poly r(c).oligo d(G) [prepared by dissolving 1.5 mg (25 U) poly r(C).oligo d(G) in 1.5 ml sterile distilled H2 O and diluting to 400 μg/ml], 0.1 μuCi/μl [^3 H] dGTP, 160 μM dGTP, was added to 10 μl sterile distilled H2 O, 2.5 μl of potential inhibitor. Ten μL of 3.2 nM purified HIV RTR in tubes. The mixture was incubated at 37° C. for 45 minutes.
# After incubation was complete, the tubes were cooled in ice for 5 minutes. Ice-cold 13% TCA containing 10 mM NaPPi (200 μl) was added and the mixture incubated on ice for 30 minutes. The precipitated cDNA was removed by filtration using presoaked glass filters [TCA, NaPPi ]. The precipitate was then washed with 1N HCl, 10 mM NaPPi. The filter discs were then counted in a scintillation counter.
# Under these conditions [dGTP] and poly r(C).oligo d(G)12-18 each are approximately equal to the appropriate Km value. Approximately 5-6,000 cpm of [^3 H] GMP are incorporated into acid-precipitable material. The RT reaction is concentration-and time-dependent.
smiles,measurement,value
"Cc1[nH]c(=O)c(NCc2nc3c(C)ccc(C)c3o2)cc1C(C)O (stereo not shown) [compound (I), 3-[(4,7-Dimethylbenzoxazol-2-yl)-methylamino]-5-(1-hydroxyethyl)-6-methyl-2(1H)-pyridinone]",IC50,~430 nM
